In patent US6409996B1, “Composition comprising one or more flavonoids, method of obtaining such composition and use thereof as UV-absorbing agent” (Flavone Sunproducts A/S, priority 1997, dated 2002):

Experiment: solubility experiment in water at room temperature
Assay type: physicochemical
Experimental: A solubility experiment was carried out in which commercially available naringin was dissolved in water at room temperature. The naringin was dissolved in an amount of 0.1 g/l corresponding to around 0.01 weight-%. A pulverous test sample of a composition obtained from Citrus Aurantium by the method according to the invention and comprising about 20 weight-% naringin was also dissolved in water at room temperature. The composition was dissolved in an amount of […], corresponding to a […] solution of naringin weight-%. Accordingly the solubility of naringin is 300 times higher in water when obtained by the method according to the invention and being in the composition obtained from Citrus Aurantium by said method, than commercially available naringin.

amount dissolved in water: 0.1 g/L
amount dissolved in water, as weight-% (commercially available naringin): around 0.01 weight-%
SMILES: C[C@@H]1O[C@@H](O[C@H]2[C@H](Oc3cc(O)c4c(c3)O[C@H](c3ccc(O)cc3)CC4=O)O[C@H](CO)[C@@H](O)[C@@H]2O)[C@H](O)[C@H](O)[C@H]1O [naringin, naringenin-7β-neohesperidoside; 5,7,4′-trihydroxyflavanone-7β-neohesperidoside]
